The values that follow come from patent publication US9745267B2, “Compounds as modulators of RORC” (Boehringer Ingelheim International GmbH, priority 2013, dated 2017).

For the assay, the target named is T1, RORγt (hRORC LBD) (Homo sapiens, UniProt P51449).
T1 construct: expressed in transfected cells; host or cells: HEK 293 (transient cotransfection with pGL4.3 luc2P/GAL4UAS/Hygro reporter)
T1 sequence (P51449 269-508 limits assumed): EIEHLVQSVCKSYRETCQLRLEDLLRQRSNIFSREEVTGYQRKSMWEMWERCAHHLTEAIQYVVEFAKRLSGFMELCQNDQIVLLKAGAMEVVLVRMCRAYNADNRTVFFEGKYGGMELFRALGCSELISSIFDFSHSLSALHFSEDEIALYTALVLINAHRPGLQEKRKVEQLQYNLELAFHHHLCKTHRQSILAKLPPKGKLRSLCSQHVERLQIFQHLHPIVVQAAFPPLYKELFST
In words: RGA Assay: nuclear receptor transactivation assay, RORγt transactivation of a luciferase reporter. The following applies: transiently transfected HEK 293 cells, Gal4DBD hRORC LBD, 20-24 hours incubation. The assay is classed as cell-based. As to the method: A nuclear receptor transactivation assay was performed to quantitate the ability of test compounds to inhibit RORγt transactivation of a luciferase reporter. A similar assay is described in: Khan et al., Bioorganic & Medicinal Chemistry Letters 23 (2013), 532-536. The system uses transiently transfected HEK 293 cells cotransfected with two plasmids (pGL4.3, luc2P/GAL4UAS/Hygro, and pBIND, Gal4DBD hRORC LBD1-3). The positive control is co-transiently transfected with both plasmids, and the negative control contains the pGL4.3 promoter sequence. Assays were assembled in 384 well plates where transiently transfected cells and test compound at varying concentrations were incubated for 20-24 hours. The next day, assays plates are taken out and equilibrated at RT for 20-30 minutes. Bright-Glo™ Luciferase Assay System is used to detect Luciferase production. After addition of Bright GLO detection reagent, the plates were incubated at RT for 20 minutes. The plates were read on an Envision plate reader to measure luminescence signal. The RLU signal is converted to POC relative to control and blank wells.
Compound Dilution Buffer:
Bright Glo Luciferase Assay System: Promega #E2620
Thaw lysis buffer provided in kit, add 100 mL lysis buffer to substrate powder.

The IC50 is the midpoint of a concentration-inhibition curve.

The molecule `CNS(=O)(=O)c1ccc(CNC(=O)N2CC3(CCCC3)c3cc(-c4cc5c(cnn5C)cc4C)ccc32)cc1` [Example 30] gave an IC50 of 740 nM.

For the molecule `CNS(=O)(=O)c1ccc(CNC(=O)N2CC3(CCCC3)c3cc(-c4ccccc4C(C)=O)ccc32)cc1` [Example 27], the IC50 was 1700 nM.

As to `COc1ccc(-c2ccc3c(c2)C2(CCCC2)CN3C(=O)NCc2ccc(S(C)(=O)=O)cc2OC)c(C(F)(F)F)c1` [Example 105], the IC50 was 430 nM. The same measure for `CNS(=O)(=O)c1ccc(CNC(=O)N2CC3(CCCC3)c3cc(-c4ccc(F)cc4C)ccc32)cc1` [Example 1]: 840 nM; for `CNS(=O)(=O)c1ccc(CNC(=O)N2CC3(CCCC3)c3cc(-c4c(C)cccc4C)ccc32)cc1` [Example 17]: 1000 nM; for `CNS(=O)(=O)c1ccc(CNC(=O)N2CC3(CCCC3)c3cc(-c4cnccc4C(F)(F)F)ccc32)cc1` [Example 25]: 1300 nM. Then `CCS(=O)(=O)c1ccc(CNC(=O)N2CC3(CCCC3)c3cc(-c4cc(F)ccc4CC#N)ccc32)cc1` [Example 72], with 1200 nM; and `CCS(=O)(=O)c1ccc(CNC(=O)N2CC3(CCCC3)c3cc(-c4cncnc4C(C)C)ccc32)cc1` [Example 76], with 610 nM. Then `CNS(=O)(=O)c1ccc(CNC(=O)N2CC3(CCCC3)c3cc(-c4ccccc4CC(F)(F)F)ccc32)cc1` [Example 87], with 680 nM. Take `CNS(=O)(=O)c1ccc(CNC(=O)N2CC3(CCCC3)c3cc(-c4cc(C)c(OC)cc4C)ccc32)cc1` [Example 83]: it took 370 nM to reach half-maximal inhibition (IC50). Regarding `CCOC(=O)c1ccc(F)cc1-c1ccc2c(c1)C1(CCCC1)CN2C(=O)NCc1ccc(S(=O)(=O)NC)cc1` [Example 80], 970 nM corresponded to half-maximal inhibition (IC50). With `CNS(=O)(=O)c1ccc(CNC(=O)N2CC3(CCCC3)c3cc(-c4ccc(F)cc4C(F)(F)F)ccc32)cc1` [Example 8], it took 420 nM to reach half-maximal inhibition (IC50).

`COc1ncnc(C(F)(F)F)c1-c1ccc2c(c1)C1(CCCC1)CN2C(=O)NCc1ccc(S(C)(=O)=O)cc1` [Example 110] gave an IC50 of 600 nM.

For `CNS(=O)(=O)c1ccc(CNC(=O)N2CC3(CCCC3)c3cc(-c4ccc(N)cc4C(=O)OC)ccc32)cc1` [Example 37], it took 920 nM to reach half-maximal inhibition (IC50). Take `CCS(=O)(=O)c1ccc(CNC(=O)N2CC3(CCCC3)c3cc(-c4cnc(N(C)C)nc4C4CC4)ccc32)cc1` [Example 119]: inhibition was half-maximal at 320 nM (IC50).

`COc1ncnc(C)c1-c1ccc2c(c1)C1(CCCC1)CN2C(=O)NCc1ccc(S(C)(=O)=O)cc1` [Example 109] displayed an IC50 of 1700 nM. Then `CNS(=O)(=O)c1ccc(CNC(=O)N2CC3(CCCC3)c3cc(-c4ccc(CO)cc4C)ccc32)cc1` [Example 42], with 1100 nM; and `CNS(=O)(=O)c1ccc(CNC(=O)N2CC3(CCCC3)c3cc(-c4cccc5cccnc45)ccc32)cc1` [Example 4], with 1500 nM; and `CNS(=O)(=O)c1ccc(CNC(=O)N2CC3(CCCC3)c3cc(-c4cncnc4C(C)C)ccc32)cc1` [Example 18], with 1000 nM. The same measure for `CNS(=O)(=O)c1ccc(CNC(=O)N2CC3(CCCC3)c3cc(-c4ccccc4COC)ccc32)cc1` [Example 20]: 1100 nM; for `CNS(=O)(=O)c1ccc(CNC(=O)N2CC3(CCCC3)c3cc(-c4ccccc4C(F)(F)F)ccc32)cc1` [Example 10]: 640 nM; for `CCS(=O)(=O)c1ccc(CNC(=O)N2CC3(CCCC3)c3cc(-c4ccc(OC)cc4C(F)(F)F)ccc32)cc1` [Example 66]: 410 nM.
